Assay results published in the NIST ThermoML archive (doi:10.1021/je600559q).

Legend:
[1] = Liquid
[2] = refractive index (Na D-line) (dimensionless); conditions: 293.1 K; 101.33 kPa; Liquid; Standard Abbe refractometry

CC1CCCCC1O (configuration not stated) [2-methylcyclohexanol]
[1]
Conditions	vapor or sublimation pressure [kPa]
361.23 K	5.394
362.23 K	5.668
363.13 K	5.919
365.7 K	6.693
367.68 K	7.345
369.92 K	8.152
371.63 K	8.817
373.16 K	9.448
375.31 K	10.4
377.78 K	11.58
380.39 K	12.94
383.11 K	14.52
385.95 K	16.32
386.1 K	16.42
389.56 K	18.86
393.07 K	21.65
395.88 K	24.1
398.52 K	26.6
402.67 K	30.99
406.67 K	35.73
410.73 K	41.11
414 K	45.9
418.26 K	52.85
424.63 K	64.66
439.57 K	100.47

Conditions	refractive index
[2]	1.46313

CC(=O)OC1CCCCC1C (configuration not stated) [2-methylcyclohexyl acetate]
[1]
Conditions	vapor or sublimation pressure [kPa]
368.01 K	5.32
369.86 K	5.758
371.87 K	6.261
373.83 K	6.787
376.56 K	7.594
379.93 K	8.675
383.36 K	9.912
386.65 K	11.22
391.27 K	13.32
393.39 K	14.38
394.15 K	14.77
398.42 K	17.2
401.6 K	19.19
403.3 K	20.34
405.73 K	22.08
410.71 K	26.01
415.57 K	30.39
418.74 K	33.54
421.2 K	36.16
423.84 K	39.17
426.54 K	42.45
429.41 K	46.21
433.2 K	51.55
440.4 K	63.09
458 K	100.13

Conditions	refractive index
[2]	1.43896
